# Laboratory results published in patent publication US20070213339A1 (Bayer Pharmaceuticals Corporation, priority 2004, published 2007).
# Test system: Colo205 human colon carcinoma cell line
# Assay: In vitro tumor cell proliferation assay (MTS, CellTiter 96 Aqueous One Solution)
# Type: cell-based
# Settings: COLO 205, Colo205 cells, 72 hours compound exposure, MTS absorbance at 490 nm, read-out: IC50 (concentration of test compound required to inhibit proliferation of 50% of the cells)
# Procedure: In Vitro Tumor Cell Proliferation Assay
# The adherent H460 human non-small cell lung carcinoma and Colo205 human colon carcinoma cell lines were purchased from the American Type and Culture Collection (ATCC, Manassas, Va.) and maintained in RPMI-1640 growth media supplemented with 10% heat inactivated fetal bovine serum (Gibco, Invitrogen Corp. Grand Island, N.Y.). At 37° C. in a humidified atmosphere of 5% CO2.
# The CellTiter 960 Aqueous One Solution kit, MTS, (Promega, Madison, Wis.) was used to measure proliferation of tumor cell lines in vitro. This method monitors the bioreduction of a tetrazolium dye as a measure of cell viability. On Day 0, exponentially growing cells were trypsinized, resuspended in RPMI-1640 growth media supplemented with 10% FCS, 100 u/ml of penicillin G and 100 ug/ml of streptomycin sulfate, and seeded at 2000 cells per well into 96 well microtiter plates. Cells were incubated overnight in a humidified atmosphere of 5% CO2 at 37° C. On Day 1, serial dilutions of compounds were prepared at 2× the finial assay concentration. One hundred microliters of 2× solution was added to test wells in duplicate and control wells received no test compound. The final drug concentration ranged from 0 to 10-20 um in a 5 point dose-response curve. Cells were incubated in the presence of test compounds in a humidified atmosphere of 5% CO2 at 37° C. for 72 hours. After 72 hours of compound exposure, 40 ul of Promega CellTiter 960 Aqueous One Solution was added to each well and absorbance at 490 n-M was measured using a multi-well plate reader. Percent inhibition of proliferation was calculated using the following formula: 100×(1−Absorbancetreated−Background/(Absorbancecontrol−Background)
# Absorbancetreated=absorbance at 490 nm in test wells, cells with test compound
# Absorbancecontrol=absorbance at 490 nm in control wells, cells with no test compound
# Background=absorbance 490 nm in wells containing media and no cells
# The concentration of test compound required to inhibit proliferation of 50% of the cells (IC50) was determined by linear regression analysis.
# Representative compounds of the invention were tested in the above-described Colo205 human colon carcinoma cell line in vitro assay and found to inhibit human colon carcinoma cell proliferation, and are summarized as follows: […]
row,Compound,IC50 [µM]
1,"CCN(CC)Cc1ccc(-n2cc(C(=O)O)c(=O)c3cc(F)c(N4CCN(c5ccccc5Cl)CC4)c(OC)c32)cc1 [Example 109, 7-[4-(2-chlorophenyl)piperazin-1-yl]-1-{4-[(diethylamino)methyl]phenyl}-6-fluoro-8-methoxy-4-oxo-1,4-dihydroquinoline-3-carboxylic acid]",0.5 to 2
2,"O=C(O)c1cn(-c2cccc(CN3CCCCC3)c2)c2c(OC(F)(F)F)c(N3CCN(c4ccc(F)cc4F)CC3)c(F)cc2c1=O [Example 142, 7-[4-(2,4-difluorophenyl)piperazin-1-yl]-6-fluoro-4-oxo-1-[3-(piperidin-1-ylmethyl)phenyl]-8-(trifluoromethoxy)-1,4-dihydroquinoline-3-carboxylic acid]",2 to 20
3,"COc1c(N2CCN(c3ccccc3C#N)CC2)c(F)cc2c(=O)c(C(=O)O)cn(-c3ccc(CN4CCCC4)cc3)c12 [Example 81, 7-[4-(2-cyanophenyl)piperazin-1-yl]-6-fluoro-8-methoxy-4-oxo-1-[4-(pyrrolidin-1-ylmethyl)phenyl]-1,4-dihydroquinoline-3-carboxylic acid]",0.5 to 2
4,"COc1ccccc1N1CCN(c2c(F)cc3c(=O)c(C(=O)O)cn(-c4ccc(CN5CCCC5)cc4)c3c2OC)CC1 [Example 83, 6-fluoro-8-methoxy-7-[4-(2-methoxyphenyl)-piperazin-1-yl]-4-oxo-1-[4-(pyrrolidin-1-ylmethyl)phenyl]-1,4-dihydroquinoline-3-carboxylic acid]",0.5 to 2
5,"COc1c(N2CCN(c3ccccc3[N+](=O)[O-])CC2)c(F)cc2c(=O)c(C(=O)O)cn(-c3ccc(CN4CCCC4)cc3)c12 [Example 84, 6-fluoro-8-methoxy-7-[4-(2-nitrophenyl)-piperazin-1-yl]-4-oxo-1-[4-(pyrrolidin-1-ylmethyl)phenyl]-1,4-dihydroquinoline-3-carboxylic acid]",0.5 to 2
6,"N#Cc1cc(C(F)(F)F)ccc1N1CCN(c2c(F)cc3c(=O)c(C(=O)O)cn(-c4ccc(CN5CCCC5)cc4)c3c2Cl)CC1 [Example 5, 8-chloro-7-{4-[2-cyano-4-(trifluoromethyl)-phenyl]piperazin-1-yl}-6-fluoro-4-oxo-1-[4 (pyrrolidin-1-ylmethyl)phenyl]-1,4-dihydroquinoline-3-carboxylic acid]",0.5 to 2
7,"CC1C=CC(C)N1Cc1ccc(-n2cc(C(=O)O)c(=O)c3cc(F)c(N4CCN(c5ncccn5)CC4)c(Cl)c32)cc1 (stereo not shown) [Example 20, 8-chloro-1-{4-[(2,5-dimethyl-2,5-dihydro-1H-pyrrol-1-yl)methyl]phenyl}-6-fluoro-4-oxo-7-(4-pyrimidin-2-ylpiperazin-1-yl)-1,4-dihydroquinoline-3-carboxylic acid]",2 to 20
8,"COc1c(N2CCN(c3ccc(Cl)c(Cl)c3)CC2)c(F)cc2c(=O)c(C(=O)O)cn(-c3ccc(CN4CCCC4)cc3)c12 [Example 86, 7-[4-(3,4-dichlorophenyl)piperazin-1-yl]-6-fluoro-8-methoxy-4-oxo-1-[4-(pyrrolidin-1-ylmethyl)phenyl]-1,4-dihydroquinoline-3-carboxylic acid]",0.5 to 2
9,"O=C(O)c1cn(-c2ccc(CN3CCCC3)nc2)c2c(Cl)c(N3CCN(c4ncccn4)CC3)c(F)cc2c1=O [Example 33, 8-chloro-6-fluoro-4-oxo-7-(4-pyrimidin-2-ylpiperazin-1-yl)-1-[6-(pyrrolidin-1-ylmethyl)pyridin-3-yl]-1,4-dihydroquinoline-3-carboxylic acid]",2 to 20
10,"CCN(CC)Cc1ccc(-n2cc(C(=O)O)c(=O)c3cc(F)c(N4CCN(c5ncccc5C#N)CC4)c(OC)c32)cc1 [Example 113, 7-[4-(3-cyanopyridin-2-yl)piperazin-1-yl]-1-{4-[(diethylamino)methyl]phenyl}-6-fluoro-8-methoxy-4-oxo-1,4-dihydroquinoline-3-carboxylic acid]",< 0.5

# Next, values leading:
row,IC50 [µM],Compound
1,< 0.5,"Cc1cccc(N2CCN(c3c(F)cc4c(=O)c(C(=O)O)cn(-c5ccc(CN6CCCC6)cc5)c4c3Cl)CC2)n1 [Example 13, 8-chloro-6-fluoro-7-[4-(6-methylpyridin-2-yl)-piperazin-1-yl]-4-oxo-1-[4-(pyrrolidin-1-ylmethyl)phenyl]-1,4-dihydroquinoline-3-carboxylic acid]"
2,< 0.5,"O=C(O)c1cn(-c2ccc(CN3CCCC3)cc2)c2c(OC(F)(F)Cl)c(N3CCN(c4ccccn4)CC3)c(F)cc2c1=O [Example 146, 8-[chloro(difluoro)methoxy]-6-fluoro-4-oxo-7-(4-pyridin-2-ylpiperazin-1-yl)-1-[4-(pyrrolidin-1-ylmethyl)phenyl]-1,4-dihydroquinoline-3-carboxylic acid]"
3,< 0.5,"O=C(O)c1cn(-c2ccc(CNC3CCCC3)cc2)c2c(Cl)c(N3CCN(c4ncccn4)CC3)c(F)cc2c1=O [Example 57, 8-chloro-1-{4-[(cyclopentylamino)methyl]-phenyl}-6-fluoro-4-oxo-7-(4-pyrimidin-2-ylpiperazin-1-yl)-1,4-dihydroquinoline-3-carboxylic acid]"
4,< 0.5,"O=C(O)c1cn(-c2ccc(CNC3CCC[C@@H]3O)cc2)c2c(Cl)c(N3CCN(c4ccccn4)CC3)c(F)cc2c1=O (stereo in doubt) [Example 172, 8-chloro-6-fluoro-1{4-[(2-hydroxycyclopentylamino)-methyl]-phenyl}-4-oxo-7-(4-pyridin-2-yl-piperazine-1-yl)-1,4-dihydro-quinoline-3-carboxylic acid]"
5,< 0.5,"N#Cc1ccccc1N1CCN(c2c(F)cc3c(=O)c(C(=O)O)cn(-c4ccc(CN5CC[C@H](O)C5)cc4)c3c2Cl)CC1 [Example 30, 8-chloro-7-[4-(2-cyanophenyl)piperazin-1-yl]-6-fluoro-1-(4-{[(3S)-3-hydroxypyrrolidin-1-yl]methyl}phenyl)-4-oxo-1,4-dihydroquinoline-3-carboxylic acid]"
6,< 0.5,"O=C(O)c1cn(-c2ccc(CNC3CCCCC3)cc2)c2c(Cl)c(N3CCN(c4ncccn4)CC3)c(F)cc2c1=O [Example 189, 8-chloro-1-(4-cyclohexylaminomethyl-phenyl)-6-fluoro-4-oxo-7-(4-pyrimidin-2-yl-piperazin-1-yl)-1,4-dihydroquinoline-3-carboxylic acid]"
7,< 0.5,"O=C(O)c1cn(-c2ccc(CNCC3CC3)cc2)c2c(Cl)c(N3CCN(c4ccccn4)CC3)c(F)cc2c1=O [Example 170, 8-chloro-1-(4-{[(cyclopropylmethyl)amino]methyl}phenyl)6-fluoro-4-oxo-7-(4-pyridin-2-ylpiperazin-1-yl)-1,4-dihydroquinoline-3-carboxylic acid]"
8,< 0.5,"CC1CCCN1Cc1ccc(-n2cc(C(=O)O)c(=O)c3cc(F)c(N4CCN(c5ccccn5)CC4)c(Cl)c32)cc1 (stereo not shown) [Example 17, 8-chloro-6-fluoro-1-{4-[(2-methylpyrrolidin-1-yl)methyl]phenyl}-4-oxo-7-(4-pyridin-2-ylpiperazin-1-yl)-1,4-dihydroquinoline-3-carboxylic acid]"
9,< 0.5,"CCN(CC)Cc1ccc(-n2cc(C(=O)O)c(=O)c3cc(F)c(N4CCN(c5ccccc5C#N)CC4)c(OC(F)(F)Cl)c32)cc1 [Example 162, 8-[chloro(difluoro)methoxy]-7-[4-(2-cyanophenyl)piperazin-1-yl]-1-{4-[(diethylamino)methyl]phenyl}-6-fluoro-4-oxo-1,4-dihydroquinoline-3-carboxylic acid]"
10,< 0.5,"O=C(O)c1cn(-c2ccc(CN3CC[C@H](O)C3)cc2)c2c(Cl)c(N3CCN(c4ncccn4)CC3)c(F)cc2c1=O [Example 27, 8-chloro-6-fluoro-1-(4-{[(3S)-3-hydroxy-pyrrolidin-1-yl]methyl}phenyl)-4-oxo-7-(4-pyrimidin-2-ylpiperazin-1-yl)-1,4-dihydroquinoline-3-carboxylic acid]"
11,< 0.5,"N#Cc1cccnc1N1CCN(c2c(F)cc3c(=O)c(C(=O)O)cn(-c4ccc(CN5CCCC5)cc4)c3c2OC(F)(F)Cl)CC1 [Example 149, 8-[chloro(difluoro)methoxy]-7-[4-(3-cyanopyridin-2-yl)piperazin-1-yl]-6-fluoro-4-oxo-1-[4-(pyrrolidin-1-ylmethyl)-phenyl]-1,4-dihydroquinoline-3-carboxylic acid]"
12,< 0.5,"COc1c(N2CCN(c3ccc(F)cc3)CC2)c(F)cc2c(=O)c(C(=O)O)cn(-c3ccc(CN(C)C)cc3)c12 [Example 93, 1-{4-[(dimethylamino)methyl]phenyl}-6-fluoro-7-[4-(4-fluorophenyl)piperazin-1-yl]-8-methoxy-4-oxo-1,4-dihydroquinoline-3-carboxylic acid]"
